# Earlier results as cited in patent US20260048031A1, “POLYMORPHS OF CO-CRYSTALS OF ITANAPRACED AND NICOTINAMIDE” (CereSpir Incorporated, priority 2024, published 2026).
# Entries after “also recorded” stand apart in the source; their conditions may differ.
# What was measured:
# [1] = in vivo
# [2] = tested on: transgenic Alzheimer's mouse models; conditions: Imbimbo, 2007, 2009; Lanzillotta 2011
# [3] = tested on: rat traumatic brain injury model
# [4] = tested on: mouse models of Parkinson's Disease; conditions: manuscript submitted
# Juvenile Batten disease = conditions: unpublished
# [5] = tested on: patients with mild cognitive impairment (MCI); conditions: listed as itanapraced
structure (smiles),measurement,setting,value
"O=C(O)C1(c2ccc(-c3ccc(Cl)c(Cl)c3)c(F)c2)CC1 [CSP-1103, 1-(3′,4′-dichloro-2-fluoro[1,1′-biphenyl]-4-yl)-cyclopropanecarboxylic acid]",penetration into the brain,[1],substantial
same,plasma half-life,[1],long
same,oral bioavailability,[1]; po,good
same,effects in transgenic Alzheimer's mouse models,[2],numerous beneficial effects
same,effects in rat traumatic brain injury model,"[3]; Lin et al., 2017",numerous beneficial effects
same,accumulation of hypertrophic microglia in the injured brain,[3]; rats after TBI (Li 2017),prevented
same,acute lung injury,[3]; rats after TBI (Li 2017),attenuated
same,neurological injury,[3]; rats after TBI (Li 2017),attenuated
same,effects in mouse models of Parkinson's Disease,[4],numerous beneficial effects
same,effects in mouse models of Juvenile Batten disease,Juvenile Batten disease,numerous beneficial effects
same,TNF-α (neuroinflammatory mediator),"[5]; CSF / brain, MCI patients",beneficial dose-related CSF differences; also recorded: dose-related statistically significant reductions
same,soluble CD40 ligand (neuroinflammatory mediator),"[5]; CSF / brain, MCI patients",beneficial dose-related CSF differences; also recorded: dose-related statistically significant reductions
same,total tau (marker of neurodegeneration),"[5]; CSF / brain, MCI patients",beneficial dose-related CSF differences; also recorded: dose-related statistically significant reductions
same,cognitive function throughout the duration of the trial,[5]; MCI patients,stable cognition; also recorded: stable cognitive function
same,safety and tolerability,"[5]; Phase 1 studies and Phase 2 in MCI, treated up to two years",good safety and tolerability; also recorded: well tolerated
